Measured values published in US4948807A, “Phenyl carbamates” (priority 1985, dated 1990).
Read-outs that look alike come from different tables or passages of the source.

Experiments:
in vivo = conditions: for selectivity ratio / LD50 at 3 h: mouse, in vivo; for protection by atropine against lethality: atropine pretreatment, in words; for absorption from the gastro-intestinal tract compared with physostigmine: from oral versus s.c. LD50
Description: Mice were given one of at least three different doses of each compound, orally or subcutaneously, a minimum of 10 mice allotted to each dose. The number of animals which died at each dose within 3 hours was determined.
This experiment was repeated after the animals had been pretreated with atropine sulphate, which blocks both peripheral and central muscarinic receptors.
What is important is the safety of the drugs and the presence and severity of side effects that may occur at therapeutic doses. A commonly-used measure of drug safety is the therapeutic index--or LD50 /ED50 [formula]
It is assumed that the therapeutic effect of these anticholinesterase agents results from an elevation of brain cholinergic activity. This in turn, should be related to the degree of inhibition of acetylcholinesterase. For the purpose of the computation of the denominator of the therapeutic ratio, there is used the dose of drug that inhibits the activity of acetylcholinesterase by 50%. […] The numerator is the dose found to kill 50% of the animals within […] of a subcutaneous injection.

acetylcholinesterase = target: T1, acetylcholinesterase (Mus musculus, UniProt P21836); assay: biochemical; type: biochemical
T1 construct: A solubilized preparation of acetylcholinesterase was prepared from mouse whole brain (minus cerebellum); from tissue; host or cells: mouse whole brain (minus cerebellum), membrane pellet solubilized with 1% Triton
T1 sequence (P21836 32-614): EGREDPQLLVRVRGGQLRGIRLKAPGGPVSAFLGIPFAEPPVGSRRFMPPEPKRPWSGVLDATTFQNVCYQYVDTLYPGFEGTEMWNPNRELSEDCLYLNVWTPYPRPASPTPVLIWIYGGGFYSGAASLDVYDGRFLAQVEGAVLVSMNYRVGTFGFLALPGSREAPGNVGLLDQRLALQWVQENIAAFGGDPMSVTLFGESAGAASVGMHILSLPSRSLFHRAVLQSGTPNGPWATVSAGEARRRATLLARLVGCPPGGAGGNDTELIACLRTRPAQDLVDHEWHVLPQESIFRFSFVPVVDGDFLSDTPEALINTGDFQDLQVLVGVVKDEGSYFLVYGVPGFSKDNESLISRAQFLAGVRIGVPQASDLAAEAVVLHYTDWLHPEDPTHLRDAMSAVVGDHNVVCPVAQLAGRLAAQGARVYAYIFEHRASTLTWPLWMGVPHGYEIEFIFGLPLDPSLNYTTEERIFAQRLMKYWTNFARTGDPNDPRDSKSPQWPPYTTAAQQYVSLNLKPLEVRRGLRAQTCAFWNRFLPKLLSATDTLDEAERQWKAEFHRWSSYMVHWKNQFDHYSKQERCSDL
Description: A solubilized preparation of acetylcholinesterase was prepared from mouse whole brain (minus cerebellum). The brain was homogenized with (100 mg/ml) phosphate buffer; pH 8.0, centrifuged, the supernatant discarded, and the pellet mixed with a similar volume as above of buffer pH 8.0 plus 1% Triton; mixed, centrifuged and the supernatant which contained most of the solubilized enzyme, was used for the subsequent determinations of anticholinesterase activity.
The activity of the enzyme (rate of hydrolysis of substrate, acetylthiocholine) was measured using at least 4 different concentrations of substrate, and at least 3 different concentrations of each inhibitor. The enzyme was incubated with inhibitor for periods ranging for 2-180 mins. at 37° C., substrate was then added, and its rate of hydrolysis measured by the spectrophotometric method of Ellman et al. (1961).

[1] = tested on: respiratory depressant effects of morphine; type: in vivo; conditions: rabbits, depending on drug and dose
Description: Different doses of the carbamate compounds were injected intravenously with morphine in rabbits Respiration rate, arterial blood gas tensions and pH were monitored continuously before and after drug administration for 4-5 hours. In another series of experiments the effect of the anticholinesterase drugs was assessed on the analgesic effect of opiates in rabbits after application of a nociceptive stimulus, i.e. electrical stimulation of the sciatic nerve.

[2] = tested on: brain acetylcholinesterase; conditions: for relative in vivo activity compared to physostigmine versus in vitro data: comparison of Table 1 with Table 2; for Relative potency to physostigmine after oral administration / % cholinesterase inhibition 3 hours after s.c. administration / Relative potency to physostigmine after subcut. (s.c.) administration: mouse brain; for Relative potency to physostigmine after oral administration / Relative potency to physostigmine after subcut. (s.c.) administration: physostigmine = 100
Description: The effect of each compound on brain acetylcholinesterase in vivo was measured, after subcutaneous or oral administration to mice. Animals were sacrificed, at different times ranging from 0.25-8 hours after drug administration. The brain was rapidly removed, and the enzyme acetylcholinesterase extracted and solubilized with 0.1% Triton, and its ability to hydrolyse acetylthiocholine assessed as described above (in vitro experiments), in comparison with the enzyme removed from mice injected with normal saline.

[3] = Degree of protection afforded by pretreatment with atropine, ratio of LD50 after pretreatment with atropine sulphate 5 mg/kg to LD50 of drug alone
[4] = Ratio whose head is drawing 10 (Table 3; oral LD50 compared with s.c. LD50), mice, oral versus s.c.
[5] = sc, Therapeutic ratio LD50/ED50 s.c., mice, ED50 = dose inhibiting brain acetylcholinesterase by 50%
[6] = incubation of enzyme with inhibitor, 37° C.
[7] = parenteral administration, in words

Row | Structure (SMILES) | selectivity ratio (in vivo; [3]) | selectivity ratio (in vivo; [4]) | LD50 at 3 h (in vivo; sc) [µmol/kg] | selectivity ratio (in vivo; [5]) | IC50 (acetylcholinesterase) [µM] | Time of peak activity (acetylcholinesterase; [6]) [min] | duration of significant brain enzyme inhibition (>30%) ([2]; at ED50 dose) | relative in vivo activity compared to physostigmine versus in vitro data [2] | Relative potency to physostigmine after oral administration ([2]; oral) | % cholinesterase inhibition 3 hours after s.c. administration [2] [%] | Relative potency to physostigmine after subcut. (s.c.) administration [2] | duration of brain acetylcholinesterase inhibition compared with physostigmine or miotine [2, 7] | protection by atropine against lethality (in vivo; mice) | absorption from the gastro-intestinal tract compared with physostigmine (in vivo) | other results
1 | CCCNC(=O)Oc1cccc(C(C)N(C)C)c1 (centres unmarked) [RA15, N-propyl-3[1-(dimethylamino)ethyl]phenyl carbamate] | 4.1 | 4.5 | 31 | 11.1 | 0.11 | 120 | more than 3 hours | relatively more active in vivo compared to physostigmine than one would expect from the in vitro data | 32 | 37 | 33 | significantly longer duration | – | – | duration of significant antagonism of the respiratory depressant effects of morphine [1]: 3 to 5 h
2 | CC(c1cccc(OC(=O)NC2CCCCC2)c1)N(C)C (centres unmarked) [RA12] | 3.8 | 3.6 | 42 | 5.8 | 0.093 | 120 | more than 3 hours | – | 17 | 37 | 13 | – | – | – | –
3 | CCCCNC(=O)Oc1cccc(C(C)N(C)C)c1 (centres unmarked) [RA5, N-butyl-3-[1-(dimethylamino)ethyl]phenyl carbamate] | 5.8 | 5 | 19 | 7.6 | 0.076 | 120 | more than 3 hours | relatively more active in vivo compared to physostigmine than one would expect from the in vitro data | 29 | 30 | 36 | significantly longer duration | considerably greater protection | – | –
4 | CCN(C)C(=O)Oc1cccc(C(C)N(C)C)c1 (centres unmarked) [RA7, N-ethyl, N-methyl-3[1-(dimethylamino)ethyl]phenyl carbamate] | – | – | 46 | – | – | – | – | – | – | – | – | – | considerably greater protection | more efficiently absorbed from the gastro-intestinal tract than is physostigmine | Time of peak activity (acetylcholinesterase): 90 min; brain enzyme inhibition after 7 hours ([2]; mouse, in vivo): 36%; duration of brain acetylcholinesterase inhibition compared with physostigmine or miotine ([2]; mouse, in vivo): significantly longer duration; duration of significant brain enzyme inhibition (>30%) ([2]; mouse, in vivo): more than 3 hours
5 | CC(c1cccc(OC(=O)N2CCOCC2)c1)N(C)C (centres unmarked) [RA11] | – | – | – | – | > 20 | 30 | – | – | – | – | – | – | – | – | –
6 | CC(C)NC(=O)Oc1cccc(C(C)N(C)C)c1 (centres unmarked) [RA13] | 4.5 | 1.1 | 65 | 1.6 | 12 | 120 | – | – | 5 | – | 2 | – | considerably greater protection | more efficiently absorbed from the gastro-intestinal tract than is physostigmine | –
7 | CCCN(C)C(=O)Oc1cccc(C(C)N(C)C)c1 (centres unmarked) [RA4, N-methyl, N-propyl-3[1-(dimethylamino)ethyl]phenyl carbamate] | 4.9 | 1.7 | 72 | 10 | 1.7 | 60 | more than 3 hours | – | 29 | 25 | 13 | significantly longer duration | considerably greater protection | more efficiently absorbed from the gastro-intestinal tract than is physostigmine | bioavailability after oral administration compared with physostigmine ([2]; oral, in words): better bioavailability after oral administration than physostigmine
8 | CCN(CC)C(=O)Oc1cccc(C(C)N(C)C)c1 (centres unmarked) [RA8, N,N-diethyl-3-[1-(dimethylamino)ethyl]phenyl carbamate] | – | – | > 568 | > 10 | 35 | 30 | more than 3 hours | relatively more active in vivo compared to physostigmine than one would expect from the in vitro data | 5 | 32 | 2 | significantly longer duration | – | – | ED50 after oral administration compared with S.C. injection ([2]; oral versus s.c.): the same as that after S.C. injection
